{
  "source": "patent US20200190073A1",
  "about": "“SUBSTITUTED SUCCINIMIDE DERIVATIVES AS PESTICIDES” (BASF SE, priority 2017, published 2020)",
  "format_in_all_cases": "in vivo",
  "key": {"[1]": {"tested_on": "Southern Armyworm (Spodoptera eridania), 2nd Instar Larvae", "assay": "CE.7 Southern armyworm, 2nd instar larvae, comparative test", "conditions": "foliar, 96 h, leaf dip, at 4 days, read-out: % mortality in comparison to untreated controls", "protocol": "(§1) The tables show % mortality in comparison to untreated controls.\nCE.7 Southern Armyworm (Spodoptera eridania), 2nd Instar Larvae\nThe active compounds were formulated in 50:50 acetone:water (vol) and 100 ppm Kinetica™ surfactant.\nA pair of first true leaves of Sieva lima bean was dipped into the test solution and allowed to dry. The leaves were then placed in a plastic perforated zip enclosure bag and ten 2nd instar larvae were added. At 4 days, observations were made of mortality and reduced feeding."}, "[2]": {"tested_on": "Silverleaf Whitefly (Bemisia argentifolii)", "assay": "CE.4 Silverleaf whitefly, comparative test", "conditions": "72 h, read-out: % mortality in comparison to untreated controls", "protocol": "as §1\nCE.4 Silverleaf Whitefly (Bemisia argentifolii)\nThe active compounds were formulated in 50:50 acetone:water (vol:vol) and 100 ppm Kinetica™ surfactant.\nSelected cotton plants were grown to the cotyledon state (one plant per pot). The cotyledons were dipped into the test solution to provide complete coverage of the foliage and placed in a well-vented area to dry. Each pot with treated seedling was placed in a plastic cup and 10 to 12 whitefly adults (approximately 3-5 day old) were introduced. The insects were collected using an aspirator and a Tygon® tubing connected to a barrier pipette tip. The tip, containing the collected insects, was then gently inserted into the soil containing the treated plant, allowing insects to crawl out of the tip to reach the foliage for feeding. The cups were covered with a reusable screened lid. Test plants were maintained in the holding room at about 25° C. and about 20-40% relative humidity for 3 days avoiding direct exposure to the fluorescent light (24 hour photoperiod) to prevent trapping of heat inside the cup. Mortality was assessed 3 days after treatment of the plants."}, "[3]": {"tested_on": "Diamond back moth (Plutella xylostella)", "assay": "CE.6 Diamond back moth, contact activity, comparative test", "conditions": "read-out: % mortality in comparison to untreated controls", "protocol": "as §1\nCE.6 Diamond Back Moth (Plutella xylostella)\nTen third-instar larvae are sprayed with 1 ml test solution and introduce to untreated leaves held petri dished lined with moist filter paper. Mortality is recorded 24, 72, and 120 hours after treatment."}, "[4]": {"tested_on": "Rice Green Leafhopper (Nephotettix virescens)", "assay": "CE.5 Rice green leafhopper, comparative test", "conditions": "72 h, read-out: % mortality in comparison to untreated controls"}},
  "data": [
    {"molecule": "O=C(NC1CCN(CC(F)(F)F)C1=O)c1ccc(C2=NOC(c3cc(Cl)c(F)c(Cl)c3)(C(F)(F)F)C2)c2c1CCC2", "note": "(stereo not shown) [Tab. 128, A-9 of WO 2015128358, reference compound]", "values": [
      {"measurement": "mortality at 3 ppm", "setting": "[1]", "value": 0, "unit": "%"},
      {"measurement": "mortality at 10 ppm", "setting": "[2]", "value": 50, "unit": "%"},
      {"measurement": "mortality at 0.1 ppm", "setting": "[3]", "value": 0, "unit": "%"},
      {"measurement": "mortality at 3 ppm", "setting": "[4]", "value": 0, "unit": "%"}
    ]}
  ]
}
